Assay results reported in ChEMBL document CHEMBL1158308, “Three new adjacent bis-tetrahydrofuran acetogenins with four hydroxyl groups from Asimina triloba” (J Nat Prod, 1996).
In brackets after ≈: the same amount, converted by molar mass.

Experiments:
Artemia salina = experiment: Toxicity to Artemia salina; type: organism-based; details: in vivo
A549 = experiment: Cytotoxicity against human A549 cells after 7 days by MTT assay; type: functional; details: for EC50: Homo sapiens, A549, 168 h, read-out: ED50 (the source's name)
MCF7 = experiment: Cytotoxicity against human MCF7 cells after 7 days by MTT assay; type: functional; details: for EC50: Homo sapiens, MCF7, 168 h, read-out: ED50 (the source's name)
HT-29 = experiment: Cytotoxicity against human HT29 cells after 7 days by MTT assay; type: functional; details: for EC50: Homo sapiens, HT-29, 168 h, read-out: ED50 (the source's name)
A498 = experiment: Cytotoxicity against human A498 cells after 7 days by MTT assay; type: functional; details: A498, 168 h, read-out: ED50 (the source's name)
PC-3 = experiment: Cytotoxicity against human PC3 cells after 7 days by MTT assay; type: functional; details: PC-3, 168 h, read-out: ED50 (the source's name)
MIA PaCa-2 = experiment: Cytotoxicity against human MIAPaCa2 cells after 7 days by MTT assay; type: functional; details: MIA PaCa-2, 168 h, read-out: ED50 (the source's name)

Row | SMILES | LC50 (Artemia salina) | EC50 (A549) [µg/mL] | EC50 (MCF7) [µg/mL] | EC50 (HT-29) [µg/mL] | EC50 (A498) [µg/mL] | EC50 (PC-3) [µg/mL] | EC50 (MIA PaCa-2) [µg/mL] | ED50 (A549) | ED50 (MCF7) | ED50 (HT-29)
1 | CCCCCCCCCC[C@@H](O)[C@H]1CC[C@H]([C@H]2CC[C@H]([C@H](O)CCCC[C@H](O)CCCCC[C@@H](O)CC3=C[C@H](C)OC3=O)O2)O1 | 4.3 ×10⁻¹ ppm | 0.673 (≈ 1.05 µM) | 0.327 (≈ 0.512 µM) | 0.00758 (≈ 0.0119 µM) | > 1 | 0.527 (≈ 0.825 µM) | > 1 |  |  | 
2 | CCCCCCCCCC[C@@H](O)[C@H]1CC[C@@H]([C@H]2CC[C@H]([C@H](O)CCCC[C@H](O)CCCCC[C@@H](O)CC3=C[C@H](C)OC3=O)O2)O1 | 2.6 ×10⁻¹ ppm |  |  | 1.39 (≈ 2.18 µM) | 0.01 (≈ 0.0157 µM) | 0.378 (≈ 0.592 µM) | 0.196 (≈ 0.307 µM) | 1 ×10⁻⁸ ug/ml | 1.88 ×10⁻⁸ ug/ml | 
3 | CCCCCCCCCCC(O)C1CCC(C2CCC(C(O)CCCCCCCC[C@H](O)CC3=C[C@@H](C)OC3=O)O2)O1 (stereo partly drawn) [ASIMICIN] |  |  | 0.852 (≈ 1.43 µM) |  |  |  |  | 8.43 ×10⁻⁴ ug/ml |  | <1 ×10⁻¹² ug/ml
4 | CCCCCCCCCC[C@@H](O)[C@H]1CC[C@H]([C@H]2CC[C@H]([C@H](O)CCCCCCCCCC[C@@H](O)CC3=C[C@H](C)OC3=O)O2)O1 [ASIMICIN] | 2.7 ×10⁻² ppm |  |  |  |  |  |  |  |  | 
5 | CCCCCCCCCC[C@@H](O)[C@H]1CC[C@H]([C@H]2CC[C@H]([C@H](O)CCCC[C@H](O)CCCCCCCC3=C[C@H](C)OC3=O)O2)O1 [ASIMIN] | 4.6 ×10⁻³ ppm |  |  |  |  |  |  | 7.99 ×10⁻⁹ ug/ml | 9.57 ×10⁻⁹ ug/ml | <1 ×10⁻¹² ug/ml
6 | CCCCCCCCCC[C@H](O)[C@H]1CC[C@H]([C@H]2CC[C@H]([C@H](O)CCCCCCCCCCCCC3=C[C@H](C)OC3=O)O2)O1 [BULLANIN] | 6 ×10⁻³ ppm |  |  |  |  |  |  | 3.11 ×10⁻¹⁴ ug/ml | 3.22 ×10⁻¹⁴ ug/ml | 4.77 ×10⁻¹⁴ ug/ml
7 | CC[C@H](O)[C@H](O)CCCCCC[C@H](O)[C@H]1CC[C@H]([C@H]2CC[C@H]([C@H](O)CCCCCCCCCCCCC3=C[C@H](C)OC3=O)O2)O1 [BULLATETROCIN] | 3.1 ×10⁻¹ ppm | 0.352 (≈ 0.551 µM) | 0.497 (≈ 0.778 µM) |  | > 1 | > 1 | > 1 |  |  | 3.32 ×10⁻⁵ ug/ml
8 | COc1cccc2c1C(=O)c1c(O)c3c(c(O)c1C2=O)C[C@@](O)(C(=O)CO)C[C@@H]3O[C@H]1C[C@H](N)[C@H](O)[C@H](C)O1 [DOXORUBICIN] | 8 ×10⁻² ppm | 0.00178 (≈ 0.00327 µM) | 0.17 (≈ 0.313 µM) | 0.00428 (≈ 0.00787 µM) | 0.00178 (≈ 0.00327 µM) | 0.0189 (≈ 0.0348 µM) | 0.00243 (≈ 0.00447 µM) |  |  | 
9 | CCCCCCCCCC[C@@H](O)[C@H]1CC[C@@H]([C@H]2CC[C@H]([C@H](O)CCCCCCCCCC[C@@H](O)CC3=C[C@H](C)OC3=O)O2)O1 [TRILOBACIN] | 8.7 ×10⁻³ ppm |  | 0.339 (≈ 0.544 µM) |  |  |  |  | 8.02 ×10⁻⁴ ug/ml |  | <1 ×10⁻¹² ug/ml
10 | CCCCCCCCCC[C@@H](O)[C@H]1CC[C@@H]([C@H]2CC[C@H]([C@H](O)CCC[C@H](O)CCCCCCCC3=C[C@H](C)OC3=O)O2)O1 [TRILOBIN] | 9.7 ×10⁻³ ppm |  |  |  |  |  |  | 5.71 ×10⁻¹² ug/ml | 2.95 ×10⁻¹² ug/ml | 2.2 ×10⁻⁸ ug/ml
